The series relates to Human Corneal Epithelial Cells. In words: In vitro corneal permeability, cellular uptake and metabolic stability in human corneal epithelial cells. It is filed as in vitro ADME. The note with it: two hour incubation with Human Corneal Epithelial Cells, 50 μM final concentration. Here is the method:
Clonetics® human corneal epithelial cells (HCEC) were purchased from Lonza Walkersville, Inc. (Walkersville, Md.) pre-seeded on Costar Transwell™ filters in a 24-well plate. Upon receipt HCEC cells were cultured overnight in a 37° C. incubator ([…], 5% CO2) in media provided by the vendor. Permeability studies were performed within 24 hours of receipt. Dosing solutions 100 μM test article (i.e. ester linked hybrids) were prepared in Lonza's proprietary media by diluting a 50 mM stock solution of the test article in dimethyl sulfoxide. The final percentage of solvent in the incubation was less than 1.0% to prevent inhibition of enzymatic activity or effects on the cell membrane. Transepithelial electrical resistance (TEER) was measured for all wells using a voltohmmeter with STX-2 electrodes (World Precision Instruments Inc., Sarasota, Fla.) after adding 100 μL pre-warmed (37° C.) media to the apical compartment. […] A final TEER value was measured and recorded for all wells.
To evaluate human corneal epithelial cell integrity incubations were conducted using 2 μCi/mL ^3H-mannitol for the same 2 hour incubation period with aliquots taken from the basolateral compartment. ^3H-Mannitol samples were analyzed using liquid scintillation counting. […]

As to `COc1c(N2CCN(C(=O)OCOC(=O)C(C)c3ccc(-c4ccccc4)c(F)c3)C(C)C2)c(F)cc2c(=O)c(C(=O)O)cn(C3CC3)c12` (stereo not shown) [Compound 16, 1-cyclopropyl-6-fluoro-7-{4-[({[2-(2-fluorobiphenyl-4-yl)propanoyl]oxy}methoxy)carbonyl]-3-methylpiperazin-1-yl}-8-methoxy-4-oxo-1,4-dihydroquinoline-3-carboxylic acid], the “cellular uptake of hybrid (parent) and hydrolyzed metabolites (FIG. 1)” value is “penetrates into human corneal epithelial cells and is enzymatically hydrolyzed to the individual antibiotic and NSAID”.
